Laboratory results from paper PMC3914206.

What was measured:
[1] = molecular target: T1, panel of 442 kinases (Homo sapiens, UniProt Q13237); assay type: binding; settings: Compound Concentration 10 µM
T1 construct: purchased KINOMEscan
T1 sequence (Q13237 1-762): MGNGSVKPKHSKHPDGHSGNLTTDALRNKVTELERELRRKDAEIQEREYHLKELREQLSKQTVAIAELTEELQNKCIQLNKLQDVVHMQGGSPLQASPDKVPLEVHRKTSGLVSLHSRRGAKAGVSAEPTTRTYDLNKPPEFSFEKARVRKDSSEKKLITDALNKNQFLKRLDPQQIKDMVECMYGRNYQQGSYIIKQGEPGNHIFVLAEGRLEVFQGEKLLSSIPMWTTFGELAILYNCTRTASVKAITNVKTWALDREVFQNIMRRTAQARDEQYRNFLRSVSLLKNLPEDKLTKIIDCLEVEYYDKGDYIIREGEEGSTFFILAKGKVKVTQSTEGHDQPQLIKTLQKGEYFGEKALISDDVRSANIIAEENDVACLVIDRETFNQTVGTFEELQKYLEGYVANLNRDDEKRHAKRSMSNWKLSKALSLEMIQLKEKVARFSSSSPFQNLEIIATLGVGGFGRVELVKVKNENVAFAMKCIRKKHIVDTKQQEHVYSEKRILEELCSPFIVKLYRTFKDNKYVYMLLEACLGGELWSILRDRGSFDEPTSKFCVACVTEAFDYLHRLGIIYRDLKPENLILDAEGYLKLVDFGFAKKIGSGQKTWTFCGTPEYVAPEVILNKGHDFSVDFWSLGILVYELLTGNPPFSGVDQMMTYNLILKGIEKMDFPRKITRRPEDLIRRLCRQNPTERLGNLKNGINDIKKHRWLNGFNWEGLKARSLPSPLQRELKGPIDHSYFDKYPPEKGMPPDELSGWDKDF
Text: (§1) We assessed the selectivity of members of this scaffold using the KINOMEscan methodology across a near comprehensive panel of 442 kinases [[18,27]].

[2] = molecular target: T2, panel of 442 kinases (Homo sapiens, UniProt Q12866); assay type: binding; settings: Compound Concentration 10 µM
T2 construct: purchased KINOMEscan
T2 sequence (Q12866 21-999): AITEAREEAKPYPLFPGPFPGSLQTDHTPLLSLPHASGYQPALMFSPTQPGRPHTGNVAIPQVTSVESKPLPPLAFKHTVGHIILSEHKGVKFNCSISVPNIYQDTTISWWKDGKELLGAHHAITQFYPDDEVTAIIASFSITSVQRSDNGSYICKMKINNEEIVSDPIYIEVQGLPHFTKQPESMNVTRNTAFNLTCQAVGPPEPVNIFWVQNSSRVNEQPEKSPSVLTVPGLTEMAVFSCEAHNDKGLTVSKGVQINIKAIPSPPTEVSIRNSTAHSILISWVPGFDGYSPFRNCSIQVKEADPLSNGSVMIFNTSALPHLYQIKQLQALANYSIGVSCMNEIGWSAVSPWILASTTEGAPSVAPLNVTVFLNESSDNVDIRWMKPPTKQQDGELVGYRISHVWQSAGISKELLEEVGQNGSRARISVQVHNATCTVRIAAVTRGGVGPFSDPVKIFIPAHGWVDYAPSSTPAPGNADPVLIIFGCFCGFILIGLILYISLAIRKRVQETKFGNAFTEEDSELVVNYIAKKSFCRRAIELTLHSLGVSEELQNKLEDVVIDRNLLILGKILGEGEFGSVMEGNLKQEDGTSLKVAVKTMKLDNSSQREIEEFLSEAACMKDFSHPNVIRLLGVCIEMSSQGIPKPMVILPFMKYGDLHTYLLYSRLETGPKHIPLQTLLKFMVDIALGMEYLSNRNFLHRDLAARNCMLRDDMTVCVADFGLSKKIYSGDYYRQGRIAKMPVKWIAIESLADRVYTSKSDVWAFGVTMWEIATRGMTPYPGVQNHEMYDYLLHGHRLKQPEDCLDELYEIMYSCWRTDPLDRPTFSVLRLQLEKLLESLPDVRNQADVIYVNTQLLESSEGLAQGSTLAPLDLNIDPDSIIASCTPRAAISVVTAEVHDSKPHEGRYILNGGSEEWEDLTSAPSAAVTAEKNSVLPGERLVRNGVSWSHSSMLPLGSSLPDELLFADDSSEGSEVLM
Text: as §1

CCOc1cc(C(=O)N2CCC(N3CCN(C)CC3)CC2)ccc1Nc1ncc2c(n1)N(C1CCCC1)c1ccccc1C(=O)N2C [Compound 26]
KINOMEscan: PRKG2 [1]: 100 | KINOMEscan: MERTK [2]: 100

COc1cc(C(=O)N2CCC(N3CCN(C)CC3)CC2)ccc1Nc1ncc2c(n1)N1CCc3cccc(c31)C(=O)N2C [Compound 24]
KINOMEscan: PRKG2 [1]: 98

COc1cc(C(=O)N2CCC(N3CCN(C)CC3)CC2)ccc1Nc1ncc2c(n1)N(C)c1ccccc1C(=O)N2C [15 (LRRK2-IN-1)]
KINOMEscan: PRKG2 [1]: 74 | KINOMEscan: MERTK [2]: 100

COc1cc(C(=O)N2CCC(N3CCN(C)CC3)CC2)ccc1Nc1ncc2c(n1)N(C1CCCC1)c1ccccc1C(=O)N2C [Compound 25, 11-cyclopentyl-2-((2-methoxy-4-(4-(4-methylpiperazin-1-yl)piperidine-1-carbonyl)phenyl)amino)-5-methyl-5H-benzo[e]pyrimido[5,4-b][1,4]diazepin-6(11H)-one]
KINOMEscan: PRKG2 [1]: 98 | KINOMEscan: MERTK [2]: 100
